Values of other authors, collected in patent US20080004440A1, “SCAR TREATMENT USING PROTEIN PHOSPHATASE INHIBITORS” (priority 2006, published 2008).
Structures can show the parent of a compound that is named as a salt. Where two headings read alike, the source gives them in different places. *1 amine or outer side, *2 acyl side, *3 side chain or, on linkers, in order; H or OH if unused. Where a SMILES comes first, the peptide text is derived from it. Bridges are numbered along the chain shown (N, C = ends). [ ]: non-standard residue; d: D form. Adda = CO[C@@H](Cc1ccccc1)[C@@H](C)/C=C(C)/C=C/[C@H](N[*:1])[C@H](C)C(=O)[*:2]; dAsp(3S-Me) = C[C@H](C(=O)[*:3])[C@@H](N[*:1])C(=O)[*:2]; d(γGlu) = O=C(O)[C@@H](CCC(=O)[*:2])N[*:1]; NMeDha = C=C(NC)C(=O)O

What was measured:
[1] = system: PP2A; settings: cited from earlier work
[2] = system: PP2A, PP1, PP2B; settings: cited from earlier work
[3] = cited from earlier work
[4] = system: PP1; settings: cited from earlier work
[5] = system: PP2B; settings: cited from earlier work

## COC[C@@H]([C@H](O)[C@H](O)C(=O)NCC[C@H](C)c1nc(/C=C/C[C@@H]2O[C@]3(C[C@@H](O)[C@@H]2C)O[C@H]([C@H](C[C@H](O)[C@H](C)[C@H](O)[C@H](C)/C=C(C)/C(C)=C/C=C/C(C)=C\C#N)OC)[C@H](OP(=O)(O)O)C3(C)C)co1)N(C)C [Calyculin A]
[1]
  IC50: 0.5 to 1 nM
[2]
  Order of inhibition / selectivity among protein phosphatases: Cell-permeable. Phosphorylated polyketide. PP2A ˜ PP1 >> PP2B
[3]; in words
  Cell permeability: Cell-permeable. Phosphorylated polyketide. PP2A ˜ PP1 >> PP2B
[4]
  IC50: 2 nM

## O=C(O)[C@@H]1[C@H](C(=O)O)[C@H]2CC[C@@H]1O2 [Endothall]
[1]
  IC50: 90 nM
[2]; in words
  Order of inhibition / selectivity among protein phosphatases: specific inhibitor of PP2A

## C[C@@](O)(/C=C/[C@H]1CC=CC(=O)O1)[C@@H](C[C@@H](O)\C=C/C=C\C=C\CO)OP(=O)(O)O [Fostriecin]
[1]
  IC50: 3.2 nM
[4]; inhibits PP1 only at higher concentrations
  IC50: 131000 nM

## C=C1C(=O)N[C@H](C)C(=O)N[C@@H](CC(C)C)C(=O)N[C@@H](C(=O)O)[C@H](C)C(=O)N[C@@H](CCCNC(=N)N)C(=O)N[C@@H](/C=C/C(C)=C/[C@H](C)[C@H](Cc2ccccc2)OC)[C@H](C)C(=O)N[C@@H](C(=O)O)CCC(=O)N1C [Microcystin-LR] (R[Adda][d(γGlu)][NMeDha][dA]L[dAsp(3S-Me)]-OH; lactam N-7)
[1]
  IC50: 0.04 nM
[2]
  Order of inhibition / selectivity among protein phosphatases: Cyclic peptide. PP2A ˜ PP1 >> PP2B (IC50 for PP2A = 40 pM
[4]
  IC50: 1.7 nM

## C=C1[C@@H](O)[C@@H]2O[C@]3(CC[C@H](/C=C/[C@@H](C)[C@@H]4CC(C)=C[C@@]5(O[C@H](C[C@@](C)(O)C(=O)O)CC[C@H]5O)O4)O3)CC[C@H]2O[C@@H]1[C@@H](O)C[C@H](C)[C@H]1O[C@@]2(CCCCO2)CC[C@H]1C [Okadaic acid, ammonium salt]
[1]
  IC50: 0.1 nM
[5]
  IC50: 5000 nM
[4]
  IC50: 10 to 15 nM

## O=P(O)(O)Oc1cccc2ccccc12 [α-Naphthyl acid Phosphate]
[2]; in words
  Order of inhibition / selectivity among protein phosphatases: Broad-spectrum protein phosphatase inhibitor.

## Microcystin-LW
[3]
  Cell permeability: A more cell-permeable analog of Microcystin-LR

## Microcystin-RR
[1]
  IC50: 1.4 nM
[2]
  Order of inhibition / selectivity among protein phosphatases: Cyclic peptide. PP2A ˜ PP1 >> PP2B (IC50 = 1.4 nM

## Protein phosphatase 2A inhibitor I1^PP2A: Protein phosphatase 2A inhibitor; potently inhibits all forms of PP2A
[1]; all forms of PP2A
  Ki: ~0.1 nM
